Results as given in ChEMBL document CHEMBL1201862, “PubChem BioAssay data set” (2004).
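Grown in 96-well plates, cells were treated for 48 hours with each compound at five concentrations. Insufficient inhibition: endpoint recorded as highest concentration tested. Here, GI50 denotes the concentration required for 50% inhibition of growth.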 Activity calls are given as the source filed them. Rule as the data show it: active = GI50 up to about 1.1 µM and inactive = higher.

Columns and labels:
Test in all cases: growth of human tumour cells (NCI), 48 h
786-0 = tested on: 786-0
HCT-116 = tested on: HCT-116
MDA-N = tested on: MDA-N
HOP-62 = tested on: HOP-62
MCF7 = tested on: MCF7
U-251 = tested on: U-251
A549 = tested on: A549
SK-MEL-28 = tested on: SK-MEL-28
MOLT-4 = tested on: MOLT-4
SNB-75 = tested on: SNB-75
HCT-15 = tested on: HCT-15
UO-31 = tested on: UO-31
UACC-62 = tested on: UACC-62
EKVX = tested on: EKVX
RXF 393 = tested on: RXF 393
OVCAR-3 = tested on: OVCAR-3
M14 = tested on: M14
OVCAR-4 = tested on: OVCAR-4
OVCAR-8 = tested on: OVCAR-8
OVCAR-5 = tested on: OVCAR-5
Hs-578T = tested on: Hs-578T
SN12C = tested on: SN12C
MDA-MB-435 = tested on: MDA-MB-435
SF-539 = tested on: SF-539
CAKI-1 = tested on: CAKI-1
SW-620 = tested on: SW-620
HOP-92 = tested on: HOP-92
COLO 205 = tested on: COLO 205
TK-10 = tested on: TK-10
HT-29 = tested on: HT-29
HL-60 = tested on: HL-60
NCI-H226 = tested on: NCI-H226
NCI-H522 = tested on: NCI-H522
SNB-19 = tested on: SNB-19
HCC 2998 = tested on: HCC 2998
NCI/ADR-RES = tested on: NCI/ADR-RES
UACC-257 = tested on: UACC-257
ACHN = tested on: ACHN
T47D = tested on: T47D
LOX IMVI = tested on: LOX IMVI
KM12 = tested on: KM12
SR = tested on: SR
NCI-H23 = tested on: NCI-H23
A498 = tested on: A498
SF-295 = tested on: SF-295
MDA-MB-231 = tested on: MDA-MB-231
IGROV-1 = tested on: IGROV-1
SK-OV-3 = tested on: SK-OV-3
K562 = tested on: K562
DU-145 = tested on: DU-145
CCRF-CEM = tested on: CCRF-CEM
PC-3 = tested on: PC-3
SF-268 = tested on: SF-268
Malme-3M = tested on: Malme-3M
NCI-H460 = tested on: NCI-H460
SK-MEL-2 = tested on: SK-MEL-2
RPMI-8226 = tested on: RPMI-8226
SK-MEL-5 = tested on: SK-MEL-5

COP(=O)(OC)/C(=C\c1cn(C(c2ccccc2)(c2ccccc2)c2ccccc2)cn1)NC(C)=O
GI50 (786-0): > 100 µM (inactive) | GI50 (HCT-116): 58.5 µM (inactive) | GI50 (MDA-N): > 100 µM (inactive) | GI50 (HOP-62): > 100 µM (inactive) | GI50 (MCF7): 88.3 µM (inactive) | GI50 (U-251): > 100 µM (inactive) | GI50 (A549): 53.7 µM (inactive) | GI50 (SK-MEL-28): > 100 µM (inactive) | GI50 (MOLT-4): 34.4 µM (inactive) | GI50 (SNB-75): > 100 µM (inactive) | GI50 (HCT-15): > 100 µM | GI50 (UO-31): > 100 µM (inactive) | GI50 (UACC-62): > 100 µM (inactive) | GI50 (EKVX): > 100 µM (inactive) | GI50 (RXF 393): 30.6 µM (inactive) | GI50 (OVCAR-3): > 100 µM (inactive) | GI50 (M14): > 100 µM (inactive) | GI50 (OVCAR-4): > 100 µM (inactive) | GI50 (OVCAR-8): > 100 µM (inactive) | GI50 (OVCAR-5): > 100 µM (inactive) | GI50 (Hs-578T): > 100 µM (inactive) | GI50 (SN12C): > 100 µM (inactive) | GI50 (MDA-MB-435): > 100 µM (inactive) | GI50 (SF-539): > 100 µM (inactive) | GI50 (CAKI-1): > 100 µM (inactive) | GI50 (SW-620): > 100 µM (inactive) | GI50 (HOP-92): > 100 µM (inactive) | GI50 (COLO 205): 84.3 µM (inactive) | GI50 (TK-10): > 100 µM (inactive) | GI50 (HT-29): 68.5 µM (inactive) | GI50 (HL-60): 53.8 µM (inactive) | GI50 (NCI-H226): > 100 µM (inactive) | GI50 (NCI-H522): > 100 µM (inactive) | GI50 (SNB-19): > 100 µM (inactive) | GI50 (HCC 2998): > 100 µM (inactive) | GI50 (NCI/ADR-RES): > 100 µM (inactive) | GI50 (UACC-257): 62.5 µM (inactive) | GI50 (ACHN): > 100 µM (inactive) | GI50 (T47D): > 100 µM (inactive) | GI50 (LOX IMVI): > 100 µM (inactive) | GI50 (KM12): 52.4 µM (inactive) | GI50 (SR): 81.8 µM (inactive) | GI50 (NCI-H23): > 100 µM (inactive) | GI50 (A498): > 100 µM (inactive) | GI50 (SF-295): > 100 µM (inactive) | GI50 (MDA-MB-231): > 100 µM (inactive) | GI50 (IGROV-1): > 100 µM (inactive) | GI50 (SK-OV-3): > 100 µM (inactive) | GI50 (K562): 51.8 µM (inactive) | GI50 (DU-145): > 100 µM (inactive) | GI50 (CCRF-CEM): 77.1 µM (inactive) | GI50 (PC-3): > 100 µM (inactive) | GI50 (SF-268): > 100 µM (inactive) | GI50 (Malme-3M): > 100 µM (inactive) | GI50 (NCI-H460): > 100 µM (inactive)

C#CCNC(Cc1c[nH]cn1)C(=O)O (stereo unspecified)
GI50 (786-0): > 100 µM (inactive) | GI50 (HCT-116): > 100 µM (inactive) | GI50 (MDA-N): > 100 µM (inactive) | GI50 (HOP-62): > 100 µM (inactive) | GI50 (MCF7): > 100 µM (inactive) | GI50 (U-251): > 100 µM (inactive) | GI50 (A549): > 100 µM (inactive) | GI50 (SK-MEL-28): > 100 µM (inactive) | GI50 (MOLT-4): > 100 µM (inactive) | GI50 (SK-MEL-2): > 100 µM (inactive) | GI50 (SNB-75): > 100 µM (inactive) | GI50 (HCT-15): > 100 µM | GI50 (UO-31): > 100 µM (inactive) | GI50 (UACC-62): > 100 µM (inactive) | GI50 (EKVX): > 100 µM (inactive) | GI50 (RXF 393): > 100 µM (inactive) | GI50 (OVCAR-3): > 100 µM (inactive) | GI50 (M14): > 100 µM (inactive) | GI50 (OVCAR-4): > 100 µM (inactive) | GI50 (OVCAR-8): > 100 µM (inactive) | GI50 (OVCAR-5): > 100 µM (inactive) | GI50 (Hs-578T): > 100 µM (inactive) | GI50 (SN12C): > 100 µM (inactive) | GI50 (MDA-MB-435): > 100 µM (inactive) | GI50 (SF-539): > 100 µM (inactive) | GI50 (CAKI-1): > 100 µM (inactive) | GI50 (SW-620): > 100 µM (inactive) | GI50 (HOP-92): > 100 µM (inactive) | GI50 (COLO 205): > 100 µM (inactive) | GI50 (TK-10): > 100 µM (inactive) | GI50 (HT-29): > 100 µM (inactive) | GI50 (HL-60): 89.3 µM (inactive) | GI50 (NCI-H226): > 100 µM (inactive) | GI50 (NCI-H522): > 100 µM (inactive) | GI50 (SNB-19): > 100 µM (inactive) | GI50 (NCI/ADR-RES): > 100 µM (inactive) | GI50 (UACC-257): > 100 µM (inactive) | GI50 (RPMI-8226): > 100 µM (inactive) | GI50 (ACHN): > 100 µM (inactive) | GI50 (T47D): > 100 µM (inactive) | GI50 (LOX IMVI): > 100 µM (inactive) | GI50 (KM12): > 100 µM (inactive) | GI50 (SR): > 100 µM (inactive) | GI50 (SK-MEL-5): > 100 µM (inactive) | GI50 (A498): > 100 µM (inactive) | GI50 (SF-295): > 100 µM (inactive) | GI50 (MDA-MB-231): > 100 µM (inactive) | GI50 (IGROV-1): > 100 µM (inactive) | GI50 (SK-OV-3): > 100 µM (inactive) | GI50 (K562): > 100 µM (inactive) | GI50 (DU-145): > 100 µM (inactive) | GI50 (CCRF-CEM): > 100 µM (inactive) | GI50 (PC-3): > 100 µM (inactive) | GI50 (SF-268): > 100 µM (inactive) | GI50 (Malme-3M): > 100 µM (inactive) | GI50 (NCI-H460): > 100 µM (inactive)

Oc1c(N2CCCCC2)cc(-c2cc(N3CCCCC3)c(O)c3ccccc23)c2ccccc12
GI50 (786-0): 22.3 µM (inactive) | GI50 (HCT-116): 19 µM (inactive) | GI50 (MDA-N): 17 µM (inactive) | GI50 (HOP-62): 32.1 µM (inactive) | GI50 (MCF7): 22.9 µM (inactive) | GI50 (U-251): 35.2 µM (inactive) | GI50 (A549): 39.3 µM (inactive) | GI50 (SK-MEL-28): 19.9 µM (inactive) | GI50 (MOLT-4): 22.9 µM (inactive) | GI50 (SK-MEL-2): 25.2 µM (inactive) | GI50 (HCT-15): 35.2 µM | GI50 (UO-31): > 100 µM (inactive) | GI50 (UACC-62): 21.1 µM (inactive) | GI50 (EKVX): > 100 µM (inactive) | GI50 (RXF 393): 20.4 µM (inactive) | GI50 (OVCAR-3): 23.3 µM (inactive) | GI50 (M14): 16.7 µM (inactive) | GI50 (OVCAR-4): 17.1 µM (inactive) | GI50 (OVCAR-8): 33 µM (inactive) | GI50 (OVCAR-5): 72.4 µM (inactive) | GI50 (Hs-578T): 27.7 µM (inactive) | GI50 (SN12C): 27.6 µM (inactive) | GI50 (MDA-MB-435): 4.24 µM (inactive) | GI50 (SF-539): 33.2 µM (inactive) | GI50 (CAKI-1): > 100 µM (inactive) | GI50 (SW-620): 29.3 µM (inactive) | GI50 (HOP-92): 23.4 µM (inactive) | GI50 (COLO 205): 26.2 µM (inactive) | GI50 (TK-10): > 100 µM (inactive) | GI50 (HT-29): 23 µM (inactive) | GI50 (HL-60): 27.7 µM (inactive) | GI50 (NCI-H226): > 100 µM (inactive) | GI50 (SNB-19): 98.4 µM (inactive) | GI50 (HCC 2998): 33.5 µM (inactive) | GI50 (NCI/ADR-RES): 34.2 µM (inactive) | GI50 (UACC-257): 14.9 µM (inactive) | GI50 (RPMI-8226): 29.6 µM (inactive) | GI50 (ACHN): 49.1 µM (inactive) | GI50 (T47D): 32.4 µM (inactive) | GI50 (LOX IMVI): 25.1 µM (inactive) | GI50 (KM12): 64.1 µM (inactive) | GI50 (SR): 0.368 µM (active) | GI50 (SK-MEL-5): 17.5 µM (inactive) | GI50 (NCI-H23): 24.9 µM (inactive) | GI50 (SF-295): 41.2 µM (inactive) | GI50 (MDA-MB-231): 39.8 µM (inactive) | GI50 (IGROV-1): 43.7 µM (inactive) | GI50 (SK-OV-3): > 100 µM (inactive) | GI50 (K562): 71.9 µM (inactive) | GI50 (DU-145): 23.4 µM (inactive) | GI50 (CCRF-CEM): 30.2 µM (inactive) | GI50 (PC-3): 31.3 µM (inactive) | GI50 (SF-268): 26 µM (inactive) | GI50 (Malme-3M): 12 µM (inactive) | GI50 (NCI-H460): 43 µM (inactive)
